The subject of one data set is S180 tumor. Kind of data set: Biodistribution in tumor-bearing mice. The class given is in vivo. The conditions noted are these: for Tumor/blood ratio / Tumor/muscle ratio / Blood / Bone / Heart / Kidney / Liver / Lung / Muscle / Small intestine / Spleen / Thyroid / Tumor: i.v., mice bearing S180 tumor. Here is the method: The mice bearing S180 tumors were injected intravenously via the tail vein respectively with the solutions (0.1 mL, 370 kBq) containing the radioactive drugs of Examples 1-4. The mice bearing S180 tumors were sacrificed by decapitation at different time points (30 min, 120 min) after the injection (5 mice for each time point). After dissection, the heart, liver, lung, kidney, spleen, bone, muscle, small intestine, blood and tumors were harvested, and measured for radioactivity with the γ-counter. The biodistribution individual organs or tissues was expressed as the percentage of the injected dose per gram of organ or tissue (% ID/g).

Data set [1] can be described thus: Determination of lipid-water partition coefficient (n-octanol/PBS pH 7.4). In kind it is physicochemical. The conditions noted are these: n-octanol / PBS 0.025 M; for logP: n-octanol/phosphate buffer solution (PBS). Here is the method: A 2 mL centrifuge tube was added with 100 µL (10µCi) of a labeling solution, then added with 950 µL of n-octanol and 850 µL of phosphate buffer solution (PBS, 0.025 M, pH=7.4). The 2 mL centrifuge tube was subjected to vortex for 3 min (2,500 rpm) and standing until the reaction solution was layered, and then centrifuged at 9,000 rpm for 5 min. Three samples (each for 100 µL) were collected from each of the two phases, and placed in γ-counter for the determination of radioactive counting. The lipid-water partition coefficient (P) was calculated by Organic phase radioactive counting/ water phase radioactive counting, and was usually expressed as Log P. The log P values of the radioactive compounds provided in Examples 1-4 were shown in Table 3.

The mark [2] stands for this setting: 120 min, mean ± SD, listed as 99mTc-4-CNPEDG.

For orientation: logP means a log measure of how a compound divides between an organic and an aqueous phase. A word on the Log P: it is the decadic logarithm of the partition coefficient of the neutral form, usually between octanol and water.

On to `O=C(NC1C(O)OC(CO)C(O)C1O)c1ccc([N+]#[C][99Tc+]([C]#[N+]c2ccc(C(=O)NC3C(O)OC(CO)C(O)C3O)cc2)([C]#[N+]c2ccc(C(=O)NC3C(O)OC(CO)C(O)C3O)cc2)([C]#[N+]c2ccc(C(=O)NC3C(O)OC(CO)C(O)C3O)cc2)([C]#[N+]c2ccc(C(=O)NC3C(O)OC(CO)C(O)C3O)cc2)[C]#[N+]c2ccc(C(=O)NC3C(O)OC(CO)C(O)C3O)cc2)cc1` (stereo not shown) [^99mTc-4-CNBzDG], for which, in the data set with S180 tumor (120 min, mean ± SD), the Tumor/blood ratio worked out at 0.47 ± 0.02 and the Tumor/muscle ratio is on record as 2.34 ± 0.18. For the same compound, the Tumor/lung ratio in the data set on S180 tumor (120 min p.i., mean ± SD) came to 0.49 ± 0.02.

Compound `O=C(NC1C(O)OC(CO)C(O)C1O)c1cccc(C[N+]#[C][99Tc+]([C]#[N+]Cc2cccc(C(=O)NC3C(O)OC(CO)C(O)C3O)c2)([C]#[N+]Cc2cccc(C(=O)NC3C(O)OC(CO)C(O)C3O)c2)([C]#[N+]Cc2cccc(C(=O)NC3C(O)OC(CO)C(O)C3O)c2)([C]#[N+]Cc2cccc(C(=O)NC3C(O)OC(CO)C(O)C3O)c2)[C]#[N+]Cc2cccc(C(=O)NC3C(O)OC(CO)C(O)C3O)c2)c1` (stereo not shown) [^99mTc-3-CNPEDG] registered a logP in data set [1] of -3.39 ± 0.166. In the data set with S180 tumor (30 min, n=5, mean ± SD), this compound came in with a Blood of 2.82 ± 0.30 % ID/g, a Bone of 1.26 ± 0.23 % ID/g, a Heart of 1.18 ± 0.12 % ID/g and a Kidney of 9.69 ± 3.48 % ID/g. Moreover, in the data set on S180 tumor (30 min, n=5, mean ± SD), the Liver is on record as 1.30 ± 0.06 % ID/g, the Lung turned out to be 3.10 ± 0.22 % ID/g, the Muscle is on record as 0.82 ± 0.24 % ID/g and the Small intestine came to 2.19 ± 0.69 % ID/g. Also, in the data set with S180 tumor (30 min, n=5, mean ± SD), the Spleen is 0.86 ± 0.09 % ID/g, the Thyroid is given as 0.04 ± 0.01 %ID/g, the Tumor worked out at 2.72 ± 0.36 % ID/g and the Tumor/blood ratio was 0.97 ± 0.07. Also, the Tumor/muscle ratio in the data set on S180 tumor (30 min, n=5, mean ± SD) turned out to be 3.49 ± 0.71. In the data set on S180 tumor (120 min, mean ± SD), the Blood was 0.22 ± 0.07 % ID/g, the Bone is recorded as 0.30 ± 0.06 % ID/g, the Heart came to 0.23 ± 0.05 % ID/g and the Kidney worked out at 4.70 ± 0.81 % ID/g. In the data set with S180 tumor (120 min, mean ± SD), this compound came in with a Liver of 0.68 ± 0.07 % ID/g, a Lung of 0.42 ± 0.09 % ID/g, a Muscle of 0.16 ± 0.04 % ID/g and a Small intestine of 0.43 ± 0.11 % ID/g. Also, in the data set with S180 tumor (120 min, mean ± SD), the Spleen came out at 0.25 ± 0.06 % ID/g, the Thyroid is reported as 0.01 ± 0.00 %ID/g, the Tumor is recorded as 1.35 ± 0.20 % ID/g and the Tumor/blood ratio came to 6.40 ± 1.45. Also, the Tumor/muscle ratio in the data set with S180 tumor (120 min, mean ± SD) was 8.76 ± 1.14. Besides, in the data set on S180 tumor (120 min p.i., in words), the “target/non-target ratio compared with 99mTc-CNPEDG” value is “better target/non-target ratio”; the “tumor uptake compared with 99mTc-CNPEDG” value was “lower tumor uptake”; the “tumor/muscle, tumor/blood and tumor/lung ratio compared with p-substituted 99mTc complexes” value was “higher”. Also, in the data set on S180 tumor (120 min p.i., mean ± SD), the Tumor/lung ratio worked out at 3.26 ± 0.37.

For the compound `O=C(NC1C(O)OC(CO)C(O)C1O)c1ccc(CC[N+]#[C][99Tc+]([C]#[N+]CCc2ccc(C(=O)NC3C(O)OC(CO)C(O)C3O)cc2)([C]#[N+]CCc2ccc(C(=O)NC3C(O)OC(CO)C(O)C3O)cc2)([C]#[N+]CCc2ccc(C(=O)NC3C(O)OC(CO)C(O)C3O)cc2)([C]#[N+]CCc2ccc(C(=O)NC3C(O)OC(CO)C(O)C3O)cc2)[C]#[N+]CCc2ccc(C(=O)NC3C(O)OC(CO)C(O)C3O)cc2)cc1` (stereo not shown) [^99mTc-4-CNPeDG], the “Log P” value in data set [1] is listed as -3.593 ± 0.012. Further, in the data set with S180 tumor (30 min, n=5, mean ± SD), the Blood amounted to 2.42 ± 0.16 % ID/g, the Bone is reported as 1.10 ± 0.07 % ID/g, the Heart was 1.15 ± 0.04 % ID/g and the Kidney came out at 7.32 ± 0.90 % ID/g. For the same compound, in the data set on S180 tumor (30 min, n=5, mean ± SD), the Liver is listed as 0.95 ± 0.03 % ID/g, the Lung was determined as 2.80 ± 0.13 % ID/g, the Muscle stood at 0.68 ± 0.05 % ID/g and the Small intestine came out at 1.38 ± 0.20 % ID/g. For the same compound, in the data set with S180 tumor (30 min, n=5, mean ± SD), the Spleen stood at 0.70 ± 0.02 % ID/g, the Thyroid was determined as 0.02 ± 0.00 %ID/g, the Tumor was 2.80 ± 0.04 % ID/g and the Tumor/blood ratio is on record as 1.16 ± 0.09. Moreover, in the data set with S180 tumor (30 min, n=5, mean ± SD), the Tumor/muscle ratio is 4.16 ± 0.35. In the data set on S180 tumor (120 min, mean ± SD), this compound yielded a Blood of 0.10 ± 0.04 % ID/g, a Bone of 0.18 ± 0.03 % ID/g, a Heart of 0.15 ± 0.02 % ID/g and a Kidney of 2.98 ± 0.74 % ID/g. Also, in the data set on S180 tumor (120 min, mean ± SD), the Liver is given as 0.38 ± 0.08 % ID/g, the Lung was 0.23 ± 0.03 % ID/g, the Muscle came to 0.10 ± 0.02 % ID/g and the Small intestine is 0.31 ± 0.07 % ID/g. Besides, in the data set on S180 tumor (120 min, mean ± SD), the Spleen is given as 0.17 ± 0.03 % ID/g, the Thyroid was determined as 0.003 ± 0.001 %ID/g, the Tumor was found to be 0.95 ± 0.21 % ID/g and the Tumor/blood ratio is 10.17 ± 1.95. Also, in the data set with S180 tumor (120 min, mean ± SD), the Tumor/muscle ratio amounted to 9.69 ± 1.81. In the data set on S180 tumor (setting [2]), the Tumor/blood ratio amounted to 3.29 ± 0.12 and the Tumor/muscle ratio was 5.21 ± 0.50. Also, in the data set on S180 tumor (120 min p.i., in words), the “target/non-target ratio compared with 99mTc-CNPEDG” value is reported as “better target/non-target ratio” and the “tumor uptake compared with 99mTc-CNPEDG” value is recorded as “lower tumor uptake”. The Tumor/lung ratio in the data set with S180 tumor (120 min p.i., mean ± SD) was found to be 1.81 ± 0.30.

In the data set with S180 tumor (120 min, mean ± SD), `O=C(NC1C(O)OC(CO)C(O)C1O)c1ccc(C[N+]#[C][99Tc+]([C]#[N+]Cc2ccc(C(=O)NC3C(O)OC(CO)C(O)C3O)cc2)([C]#[N+]Cc2ccc(C(=O)NC3C(O)OC(CO)C(O)C3O)cc2)([C]#[N+]Cc2ccc(C(=O)NC3C(O)OC(CO)C(O)C3O)cc2)([C]#[N+]Cc2ccc(C(=O)NC3C(O)OC(CO)C(O)C3O)cc2)[C]#[N+]Cc2ccc(C(=O)NC3C(O)OC(CO)C(O)C3O)cc2)cc1` (stereo not shown) [^99mTc-CNPEDG, reference compound] returned a Blood of 1.29 ± 0.16 % ID/g, a Kidney of 7.56 ± 0.94 % ID/g, a Liver of 2.52 ± 0.26 % ID/g and a Lung of 2.39 ± 0.31 % ID/g. For the same compound, in the data set with S180 tumor (120 min, mean ± SD), the Muscle is recorded as 0.82 ± 0.08 % ID/g, the Tumor was 4.25 ± 0.56 % ID/g, the Tumor/blood ratio is listed as 3.29 ± 0.12 and the Tumor/muscle ratio was 5.21 ± 0.50.

In data set [1], `O=C(Cc1ccc(C[N+]#[C][99Tc+]([C]#[N+]Cc2ccc(CC(=O)NC3C(O)OC(CO)C(O)C3O)cc2)([C]#[N+]Cc2ccc(CC(=O)NC3C(O)OC(CO)C(O)C3O)cc2)([C]#[N+]Cc2ccc(CC(=O)NC3C(O)OC(CO)C(O)C3O)cc2)([C]#[N+]Cc2ccc(CC(=O)NC3C(O)OC(CO)C(O)C3O)cc2)[C]#[N+]Cc2ccc(CC(=O)NC3C(O)OC(CO)C(O)C3O)cc2)cc1)NC1C(O)OC(CO)C(O)C1O` (stereo not shown) [^99mTc-4-CNMBDG] showed a logP of -3.1 ± 0.036. In the data set on S180 tumor (30 min, n=5, mean ± SD), this compound displayed a Blood of 4.08 ± 0.57 % ID/g, a Bone of 3.05 ± 0.62 % ID/g, a Heart of 2.67 ± 0.41 % ID/g and a Kidney of 10.18 ± 1.28 % ID/g. In the data set with S180 tumor (30 min, n=5, mean ± SD), the Liver came to 3.00 ± 0.55 % ID/g, the Lung came out at 5.89 ± 0.59 % ID/g, the Muscle came out at 1.96 ± 0.50 % ID/g and the Small intestine stood at 4.04 ± 0.87 % ID/g. In the data set on S180 tumor (30 min, n=5, mean ± SD), the Spleen is on record as 2.24 ± 0.38 % ID/g, the Thyroid worked out at 0.07 ± 0.01 %ID/g, the Tumor worked out at 6.46 ± 1.86 % ID/g and the Tumor/blood ratio came out at 1.57 ± 0.36. Besides, the Tumor/muscle ratio in the data set on S180 tumor (30 min, n=5, mean ± SD) was found to be 3.52 ± 1.35. In the data set with S180 tumor (120 min, mean ± SD), this compound yielded a Blood of 0.64 ± 0.22 % ID/g, a Bone of 1.27 ± 0.35 % ID/g, a Heart of 1.31 ± 0.18 % ID/g and a Kidney of 7.37 ± 1.71 % ID/g. In the data set on S180 tumor (120 min, mean ± SD), the Liver came to 2.43 ± 0.49 % ID/g, the Lung amounted to 1.31 ± 0.44 % ID/g, the Muscle was determined as 0.86 ± 0.15 % ID/g and the Small intestine was 1.65 ± 0.43 % ID/g. Moreover, in the data set on S180 tumor (120 min, mean ± SD), the Spleen stood at 1.28 ± 0.34 % ID/g, the Thyroid came out at 0.03 ± 0.01 %ID/g, the Tumor stood at 6.22 ± 1.77 % ID/g and the Tumor/blood ratio was 10.06 ± 1.54. In addition, the Tumor/muscle ratio in the data set on S180 tumor (120 min, mean ± SD) came out at 7.14 ± 1.11. Further, in the data set on S180 tumor (120 min p.i., in words), the “tumor uptake compared with 99mTc-CNPEDG” value is reported as “higher tumor uptake”. The clearance in blood result in the data set on S180 tumor (compared with 99mTc-CNPEDG, in words) was “faster clearance in blood”.
